This is an account of results in patent publication US9023874B2, “Fluorinated oxa or thia heteroarylalkylsulfide derivatives for combating invertebrate pests” (Merial, Inc., priority 2009, dated 2015).

Holding throughout (assay type): in vivo
The test system of assay [1] is vetch aphid (Megoura viciae). As to the kind of experiment: Activity against vetch aphid, sprayed bean leaf disks in microtiter plates. The settings on record: foliar, 144 h, test solution 2500 mg/L, leaf disk spray, 6 days, read-out: mortality in comparison with untreated controls. The method, then: The active compounds were formulated in 1:3 (vol:vol) DMSO:water with different concentrations of formulated compounds.
Bean leaf disks were placed into microtiterplates filled with 0.8% agar-agar and 2.5 ppm OPUST™. The leaf disks were sprayed with 2.5 μl of the test solution and 5 to 8 adult aphids were placed into the microtiterplates which were then closed and kept at 23±1° C. and 50±5% relative humidity under fluorescent light for 6 days. Mortality was assessed on the basis of vital, reproduced aphids. Aphid mortality and fecundity was then visually assessed.

For assay [2], the system named is boll weevil (Anthonomus grandis). The experiment in a line: Activity against boll weevil, insect diet with eggs in microtiter plates. The settings on record: 120 h, test solution 2500 mg/L, sprayed onto diet, 5 days, read-out: mortality (egg and larval) in comparison with untreated controls. The method, then:
The compounds were formulated in 75:25 (vohvol) water:DMSO.
For evaluating control of boll weevil (Anthonomus grandis) the test unit consisted of 24-well-microtiter plates containing an insect diet and 20-30 A. grandis eggs. Different concentrations of formulated compounds were sprayed onto the insect diet at 20 μI, using a custom built micro atomizer, at two replications. After application, the microtiter plates were incubated at 23±1° C. and 50±5% relative humidity for 5 days. Egg and larval mortality was then visually assessed.

Assay [3] relates to Vanda/orchid thrips (Dichromothrips corbetti). The experiment in a line: Activity against Vanda/orchid thrips, dipped orchid petals. To be noted: petal dip, after 72 hours, read-out: mortality in comparison with untreated controls. The method, then: The active compounds were formulated as a 50:50 (vohvol) acetone:water solution. Surfactant (Alkamuls® EL 620 from Rhodia) was added at the rate of 0.1% (vol/vol). Vanda orchids petals were cleaned, washed and air dried prior to dipping. Petals were dipped into the test solution for 3 seconds, air dried, placed inside a resealable plastic and inoculated with 20 adults. The treated petals were kept inside the holding room at 28-29° C. and relative humidity of 50-60%. Percent mortality was recorded after 72 hours.

For assay [4], the system named is cowpea aphid (Aphis craccivora). The experiment in a line: Activity against cowpea aphid, sprayed potted cowpea plants. The settings on record: spray, population reduction assessed after 24, 72 and 120 hours, read-out: mortality in comparison with untreated controls. The method, then: The active compounds were formulated in 50:50 (vohvol) acetone:water. The test solution was prepared at the day of use.
Potted cowpea plants colonized with 100-150 aphids of various stages were sprayed after the pest population had been recorded. Population reduction was assesed after 24, 72, and 120 hours.

Assay [5] relates to silverleaf whitefly (Bemisia argentifolii, adult). As to the kind of experiment: Activity against silverleaf whitefly adults, sprayed cotton plants. The settings on record: 72 h, spray, 3 days after treatment, read-out: mortality in comparison with untreated controls. The method, then: The active compounds were formulated in cyclohexanone as a 10,0000 ppm solution supplied in 1.3 ml ABgene® tubes. These tubes were inserted into an automated electrostatic sprayer equipped with an atomizing nozzle and they served as stock solutions for which lower dilutions were made in 50% acetone:50% water (v/v). A nonionic surfactant (Kinetic®) was included in the solution at a volume of 0.01% (v/v).
Cotton plants at the cotyledon stage (one plant per pot) were sprayed by an automated electrostatic plant sprayer equipped with an atomizing spray nozzle. The plants were dried in the sprayer fume hood and then removed from the sprayer. Each pot was placed into a plastic cup and 10 to 12 whitefly adults (approximately 3-5 days old) were introduced. The insects were collected using an aspirator and 0.6 cm, nontoxic Tygon® tubing (R-3603) connected to a barrier pipette tip. The tip, containing the collected insects, was then gently inserted into the soil containing the treated plant, allowing insects to crawl out of the tip to reach the foliage for feeding. Cups were covered with a reusable screened lid (150-micron mesh polyester screen PeCap from Tetko, Inc.). […] Mortality was assessed 3 days after treatment, compared to untreated control plants.

Assay [6] concerns Mediterranean fruitfly (Ceratitis capitata). The experiment in a line: Activity against Mediterranean fruitfly, insect diet with eggs in microtiter plates. To be noted: 120 h, sprayed onto diet with eggs, 5 days, read-out: mortality (egg and larval). The method, then: The active compounds were formulated in 1:3 (vohvol) DMSO:water.
For evaluating control of Mediterranean fruitfly the test unit consisted of microtiter plates containing an insect diet and 50 to 80 C. capitata eggs.
Different concentrations of formulated compounds were sprayed onto the insect diet at 5 μI, using a custom built micro atomizer, at two replications. After application, microtiter plates were incubated at 28±1° C. and 80±5% relative humidity for 5 days. Egg and larval mortality was then visually assessed.

Assay [7] relates to diamondback moth (Plutella xylostella). As to the kind of experiment: Activity against diamondback moth, dipped cabbage leaf disk. The settings on record: foliar, test solution 500 ppm, leaf dip, third instar larvae, after 72 h, read-out: mortality in comparison with untreated controls. The method, then: The active compounds were formulated in 50:50 acetone:water and 0.1% (vol/vol) Alkamuls® EL 620 surfactant. A 6 cm leaf disk of cabbage leaves was dipped in the test solution for 3 seconds and allowed to air dry in a Petri plate lined with moist filter paper. The leaf disk was inoculated with 10 third instar larvae and kept at 25-27° C. and 50-60% humidity for 3 days. Mortality was assessed after 72 h of treatment.

Assay [8] has as its system brown planthopper (Nilaparvata lugens). The experiment in a line: Activity against brown planthopper, sprayed rice seedlings. The settings on record: spray, after 72 hours, read-out: mortality in comparison with untreated controls. The method, then: The active compounds were formulated as a 50:50 (vohvol) acetone:water solution. Surfactant (Alkamuls® EL 620 from Rhodia) was added at the rate of 0.1% (vol/vol).
Rice seedlings were cleaned and washed 24 h before spraying. Potted rice seedlings were sprayed with 5 ml test solution, air dried, placed in cages and inoculated with 10 adults. Treated rice plants were kept at 28-29° C. and relative humidity of 50-60%. Percent mortality was recorded after 72 hours.

Where only a bound is given, the exact number is not on record here.

As usually defined, the mortality is the percentage killed. As to `CC(SCCSC(F)(F)F)c1nnc(C(F)(F)F)s1` (centres unmarked) [11-1, 2-(Trifluoromethyl)-5-{1-[2-(trifluoromethylthio)ethylthio]ethyl}-1,3,4-thiadiazole], the mortality at 2500 µg/mL in assay [1] and in assay [2] was 100% throughout.
Turning to `CC(c1nnc(C(F)(F)F)s1)S(=O)(=O)CCSC(F)(F)F` (centres unmarked) [11-2, 2-(Trifluoromethyl)-5-{1-[2-(trifluoromethylthio)ethylsulfonyl]-ethyl}-1,3,4-thiadiazole], the mortality at 500 ppm in assay [3], in assay [4] and in assay [5] was at least 75% throughout. In addition, the mortality at 2500 µg/mL in assay [1] and in assay [2] was 100% each time. Moreover, the mortality at 2500 ppm in assay [6] was at least 50%.
Consider `CC(c1nnc(C(F)(F)F)s1)[S+]([O-])CCSC(F)(F)F` (centres unmarked) [11-3, 2-(Trifluoromethyl)-5-{1-[2-(trifluoromethylthio)ethylsulfinyl]ethyl}-1,3,4-thiadiazole], for which the mortality at 500 ppm in assay [7], in assay [3], in assay [4] and in assay [8] was at least 75% in each case. The mortality at 2500 µg/mL in assay [1] and in assay [2] was 100% in each case.
Regarding `CC(Cl)(c1nnc(C(F)(F)F)s1)[S+]([O-])CCSC(F)(F)F` (centres unmarked) [11-8, 2-{1-Chloro-1-[2-(trifluoromethylthio)ethylsulfinyl]ethyl}-5-(trifluoromethyl)-1,3,4-thiadiazole], the mortality at 2500 µg/mL in assay [2] was 100%. Besides, the mortality at 500 ppm in assay [8] was at least 75%.
In the case of `CC(C#N)(SCCSC(F)(F)F)c1nnc(C(F)(F)F)s1` (centres unmarked) [11-9, 2-(5-(trifluoromethyl)-1,3,4-thiadiazol-2-yl)-2-(2-(trifluoromethylthio)ethylthio)propanenitrile], the mortality at 2500 ppm in assay [6] was at least 50%.
